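In this assay, cells in 96-well plates receive the compound at five concentrations for 48 hours. Endpoints are linearly interpolated between the surrounding concentrations. GI50 = concentration required for 50% inhibition of growth.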 Calls of active or inactive are those of the source. Rule as the data show it: active = GI50 up to about 1.1 µM and inactive = higher.
Assays:
Assay in all cases: NCI-60 cell line screen, 48 h
BT-549 = tested on: BT-549
OVCAR-8 = tested on: OVCAR-8
CAKI-1 = tested on: CAKI-1
NCI-H460 = tested on: NCI-H460
ACHN = tested on: ACHN
UACC-257 = tested on: UACC-257
TK-10 = tested on: TK-10
MCF7 = tested on: MCF7
EKVX = tested on: EKVX
SK-MEL-28 = tested on: SK-MEL-28
SF-539 = tested on: SF-539
UACC-62 = tested on: UACC-62
LOX IMVI = tested on: LOX IMVI
SF-268 = tested on: SF-268
NCI-H226 = tested on: NCI-H226
HOP-62 = tested on: HOP-62
COLO 205 = tested on: COLO 205
HCC 2998 = tested on: HCC 2998
KM12 = tested on: KM12
DU-145 = tested on: DU-145
HL-60 = tested on: HL-60
Hs-578T = tested on: Hs-578T
T47D = tested on: T47D
A549 = tested on: A549
MDA-MB-435 = tested on: MDA-MB-435
RXF 393 = tested on: RXF 393
SN12C = tested on: SN12C
A498 = tested on: A498
M14 = tested on: M14
786-0 = tested on: 786-0
NCI/ADR-RES = tested on: NCI/ADR-RES
PC-3 = tested on: PC-3
HT-29 = tested on: HT-29
MOLT-4 = tested on: MOLT-4
OVCAR-3 = tested on: OVCAR-3
OVCAR-4 = tested on: OVCAR-4
NCI-H522 = tested on: NCI-H522
CCRF-CEM = tested on: CCRF-CEM
MDA-MB-231 = tested on: MDA-MB-231
HCT-15 = tested on: HCT-15
HCT-116 = tested on: HCT-116
Malme-3M = tested on: Malme-3M
NCI-H23 = tested on: NCI-H23
SK-MEL-2 = tested on: SK-MEL-2
HOP-92 = tested on: HOP-92
OVCAR-5 = tested on: OVCAR-5
SNB-75 = tested on: SNB-75
U-251 = tested on: U-251
UO-31 = tested on: UO-31
RPMI-8226 = tested on: RPMI-8226
IGROV-1 = tested on: IGROV-1
SK-OV-3 = tested on: SK-OV-3
SR = tested on: SR
SW-620 = tested on: SW-620
SF-295 = tested on: SF-295
MDA-N = tested on: MDA-N
SK-MEL-5 = tested on: SK-MEL-5
SNB-19 = tested on: SNB-19
K562 = tested on: K562

Cc1ccc(/N=N/c2c(C)nn(C(=O)CC(=O)Nc3ccccc3)c2C)cc1C
GI50 (BT-549): > 100000 nM (inactive) | GI50 (OVCAR-8): > 100000 nM (inactive) | GI50 (CAKI-1): > 100000 nM (inactive) | GI50 (NCI-H460): > 100000 nM (inactive) | GI50 (ACHN): > 100000 nM (inactive) | GI50 (UACC-257): > 10000 nM (inactive) | GI50 (TK-10): > 100000 nM (inactive) | GI50 (MCF7): > 100000 nM (inactive) | GI50 (EKVX): 26200 nM (inactive) | GI50 (SK-MEL-28): > 100000 nM (inactive) | GI50 (SF-539): > 100000 nM (inactive) | GI50 (UACC-62): > 100000 nM (inactive) | GI50 (LOX IMVI): > 100000 nM (inactive) | GI50 (SF-268): > 100000 nM (inactive) | GI50 (NCI-H226): > 100000 nM (inactive) | GI50 (HOP-62): > 100000 nM (inactive) | GI50 (COLO 205): > 100000 nM (inactive) | GI50 (HCC 2998): > 100000 nM (inactive) | GI50 (KM12): > 100000 nM (inactive) | GI50 (DU-145): > 100000 nM (inactive) | GI50 (HL-60): > 100000 nM (inactive) | GI50 (Hs-578T): > 100000 nM (inactive) | GI50 (T47D): > 100000 nM (inactive) | GI50 (A549): > 100000 nM (inactive) | GI50 (MDA-MB-435): > 100000 nM (inactive) | GI50 (RXF 393): > 100000 nM (inactive) | GI50 (SN12C): > 100000 nM (inactive) | GI50 (A498): > 100000 nM (inactive) | GI50 (M14): > 100000 nM (inactive) | GI50 (786-0): > 100000 nM (inactive) | GI50 (NCI/ADR-RES): > 100000 nM (inactive) | GI50 (PC-3): > 100000 nM (inactive) | GI50 (HT-29): > 100000 nM (inactive) | GI50 (MOLT-4): > 100000 nM (inactive) | GI50 (OVCAR-3): > 100000 nM (inactive) | GI50 (OVCAR-4): > 100000 nM (inactive) | GI50 (NCI-H522): > 100000 nM (inactive) | GI50 (CCRF-CEM): > 100000 nM (inactive) | GI50 (MDA-MB-231): > 100000 nM (inactive) | GI50 (HCT-15): > 100000 nM | GI50 (HCT-116): > 100000 nM (inactive) | GI50 (Malme-3M): > 100000 nM (inactive) | GI50 (NCI-H23): > 100000 nM (inactive) | GI50 (SK-MEL-2): > 100000 nM (inactive) | GI50 (HOP-92): > 100000 nM (inactive) | GI50 (OVCAR-5): > 100000 nM (inactive) | GI50 (SNB-75): 59700 nM (inactive) | GI50 (U-251): > 100000 nM (inactive) | GI50 (UO-31): > 100000 nM (inactive) | GI50 (RPMI-8226): > 100000 nM (inactive) | GI50 (IGROV-1): > 100000 nM (inactive) | GI50 (SK-OV-3): > 100000 nM (inactive) | GI50 (SR): > 100000 nM (inactive) | GI50 (SW-620): > 100000 nM (inactive) | GI50 (SF-295): > 100000 nM (inactive) | GI50 (MDA-N): > 100000 nM (inactive) | GI50 (SK-MEL-5): > 100000 nM (inactive)

CC[C@@]1(O)C[C@H](OC2CC(N(C)C)C(O)C(C)O2)c2c(O)c3c(c(O)c2[C@H]1OC1CC(N(C)C)C(O)C(C)O1)C(=O)c1cccc(O)c1C3=O (stereo not given in full)
GI50 (BT-549): 41 nM (active) | GI50 (OVCAR-8): 27.4 nM (active) | GI50 (CAKI-1): 19.5 nM (active) | GI50 (NCI-H460): 18 nM (active) | GI50 (SNB-19): 40 nM (active) | GI50 (UACC-257): 146 nM (active) | GI50 (TK-10): 47.3 nM (active) | GI50 (MCF7): 32.1 nM (active) | GI50 (EKVX): 98.4 nM (active) | GI50 (SK-MEL-28): 37.3 nM (active) | GI50 (SF-539): 53.1 nM (active) | GI50 (UACC-62): 25.3 nM (active) | GI50 (LOX IMVI): 20.8 nM (active) | GI50 (SF-268): 60.3 nM (active) | GI50 (NCI-H226): 21.9 nM (active) | GI50 (HOP-62): 40.4 nM (active) | GI50 (COLO 205): 32.1 nM (active) | GI50 (HCC 2998): 28.4 nM (active) | GI50 (KM12): 28 nM (active) | GI50 (DU-145): 182 nM (active) | GI50 (HL-60): 86.9 nM (active) | GI50 (Hs-578T): 57.7 nM (active) | GI50 (T47D): 60 nM (active) | GI50 (A549): 30.6 nM (active) | GI50 (MDA-MB-435): 34.1 nM (active) | GI50 (RXF 393): 25.5 nM (active) | GI50 (SN12C): 54 nM (active) | GI50 (A498): 12 nM (active) | GI50 (M14): 35.7 nM (active) | GI50 (786-0): 19.6 nM (active) | GI50 (NCI/ADR-RES): 177 nM (active) | GI50 (PC-3): 36.1 nM (active) | GI50 (K562): 26.7 nM (active) | GI50 (HT-29): 22.4 nM (active) | GI50 (MOLT-4): 81.7 nM (active) | GI50 (OVCAR-3): 51 nM (active) | GI50 (OVCAR-4): 40.9 nM (active) | GI50 (NCI-H522): 14.4 nM (active) | GI50 (CCRF-CEM): 68.7 nM (active) | GI50 (MDA-MB-231): 34.1 nM (active) | GI50 (HCT-15): 58.5 nM | GI50 (HCT-116): 24.7 nM (active) | GI50 (Malme-3M): 42.4 nM (active) | GI50 (NCI-H23): 57 nM (active) | GI50 (SK-MEL-2): 22.7 nM (active) | GI50 (HOP-92): 71 nM (active) | GI50 (OVCAR-5): 83.8 nM (active) | GI50 (SNB-75): 19.5 nM (active) | GI50 (U-251): 26.4 nM (active) | GI50 (UO-31): 27.5 nM (active) | GI50 (RPMI-8226): 40.9 nM (active) | GI50 (IGROV-1): 70.6 nM (active) | GI50 (SK-OV-3): 39.7 nM (active) | GI50 (SR): 38.5 nM (active) | GI50 (SW-620): 37.8 nM (active) | GI50 (SF-295): 40 nM (active) | GI50 (MDA-N): 36.3 nM (active) | GI50 (SK-MEL-5): 32.3 nM (active)

— ChEMBL document CHEMBL1201862, “PubChem BioAssay data set” (2004)
